Measurements from patent publication US11752125B2, “Anti-neuroinflammatory and protective compounds in Achillea fragrantissima” (THE STATE OF ISRAEL MINISTRY OF AGRICULTURE & RURAL …, priority 2013, dated 2023).

Assays:
[1] = system: N2a neuronal cells; test: Glutamate-induced neuronal cell death (LDH); type: cell-based; details: LDH 20 hr later
Protocol: Grow N2a cells in DMEM (high glucose, 225 ml), Opti-MEM (250 ml) containing 1% Fetal Bovine Serum, 2 mM L-Glutamine, 100 U/ml penicillin and 100 micrograms/mL streptomycin.
Treat N2a neuronal cells with AcA or TTF.
Two hr later add 100 micromolars of freshly diluted glutamate;
Incubate the culture for 20 hr (37° C., 5% CO2);
Measure cytotoxicity by the LDH method
N2a neuronal cells were treated with glutamate (100 μM) and TTF. Cytotoxicity was measured 20 hr later. The results are shown in FIG. 16 and are the mean±SEM of one experiment (n=8).
Achillolide A was added to N2a cells before (−2 h, −1 h) concomitant (0) or after (1 h, 2 h) the addition of glutamate. Cytotoxicity was measured 20 h later by the levels of LDH in the conditioned media. Results are means±SEM of two experiments (n=16). **P<0.01, ***P<0.001, compared to cells that were treated with glutamate only.
N2a neuronal cells were treated with Aβ25-35 (25 μM) and achillolide A. Cytotoxicity was measured 20 hr later. The results are the means±SEM of two different experiments (n=16).
N2a neuronal cells were treated with Aβ25-35 (25 μM) and achillolide A or memantine. Cytotoxicity was measured 20 hr later. The results are the mean±SEM of two different experiments (n=16) for AcA and one experiment (n=8) for memantine.

[2] = system: CREB; test: Aβ25-35-induced CREB phosphorylation in N2a cells (ELISA); type: cell-based; details: concomitant treatment 30 min
Protocol: 7. Measure the amount of total and phosphorylated CREB in cell lysates of N2a cells, by ELISA using the PathScan total CREB sandwich ELISA kit (Cell Signaling TECHNOLOGY) or the PathScan phosoho-CREB (Ser133) sandwich ELISA kit (Cell Signaling TECHNOLOGY), respectively. 8. Determine the optical density at 450 nm using a microplate reader.
N2a cells were treated concomitantly with Aβ25-35 and TTF for 30 min. Cells were extracted and the levels of phosphorylated (FIG. 15 A) or total (FIG. 15 B) CREB were determined by specific ELISA kits. The results are the mean±SEM of one experiment (n=2).
N2a cells were treated concomitantly with Aβ25-35 and AcA for 30 min. Cells were extracted and the levels of phosphorylated CREB were determined by A specific ELISA kit. The results are the mean±SEM of one experiment (n=2).

[3] = system: SAPK/JNK; test: H2O2-induced SAPK/JNK phosphorylation in astrocytes (ELISA); type: cell-based, rat; details: H2O2 175 μM 40 min
Protocol: Astrocytes were treated with TTF 2 h before the addition of H2O2. Cells were lysed 40 minutes after the addition of H2O2 in lysis buffer supplied by PathScan sandwich ELISA kit (Cell Signaling TECHNOLOGY) according to the manufacturer's protocol. Protein concentrations in cell lysates were determined by Bradford reagent (Bio-Rad, Hercules, Calif.), and equal amounts of proteins were subjected to ELISA. To measure the amount of total and phosphoSAPK/JNK in cell lysates of astrocytes, ELISA was performed according to the manufacturer's protocol using the PathScan total SAPK/JNK sandwich ELISA kit (Cell Signaling TECHNOLOGY) and the PathScan phospho-SAPK/JNK (Thr183/Tyr185) sandwich ELISA kit (Cell Signaling TECHNOLOGY), respectively. […] The optical density was determined at 450 nm using a microplate reader.
1. […] Determine the optical density at 450 nm using a microplate reader.
Astrocytes were treated with 175 μM of H2O2 for 40 min following preincubation with TTF for 2 h. The levels of phosphorylated and total SAPK/JNK (FIG. 3A), MEK1 (FIG. 3B) and ERK 1/2 (FIG. 3C) were measured by ELISA. […]

Row | SMILES | effect on glutamate-induced cytotoxicity [1] | effect on Aβ25-35-induced phosphorylation of CREB [2] | inhibition of H2O2-induced phosphorylation of SAPK/JNK ([3]; astrocytes pretreated 2 h, total SAPK/JNK not affected) [%] | effect on H2O2-induced phosphorylation of SAPK/JNK ([3]; astrocytes preincubated 2 h)
1 | COc1cc(-c2oc3cc(OC)c(OC)c(O)c3c(=O)c2O)ccc1O [TTF, 3,5,4′-trihydroxy-6,7,3′-trimethoxyflavone] | prevents the cytotoxic effect at nanomolar concentrations | significantly inhibited | 80 | 
2 | C=C1CCC2=C(CO)C(=O)O[C@H]2/C=C(\C)[C@H](OC(C)=O)CC1=O [achillolide A] | prevents the cytotoxic effect at nanomolar concentrations | down-regulates |  | inhibitory effect
